For data set [1], the system named is coronary arteries of pigs. As to the kind of experiment: In vivo testing of drug-loaded polymer stents in pig coronary arteries. Conditions: for % Intimal Growth / % Diameter Stenosis: metal support/polymer segments stent, 1500 µg drug; for % Intimal Growth / % Diameter Stenosis / reduction in percent stenosis compared to the stent containing paclitaxel: 28 days; for % Diameter Stenosis: morphometric analysis; for reduction in percent stenosis compared to the stent containing paclitaxel: pigs. The method, then:
In studies performed in support of the invention, polymeric materials containing 7-hexanoyl taxol were prepared from an acrylate/methyacrylate monomer mixture and polymerized using a methacrylate crosslinker, as described in Example 2. 7-hexanoyl taxol was incorporated into the polymer by contacting the polymer with a concentrated solution of the 7-hexanoyl taxol in a suitable organic solvent. Such polymeric materials, and polymeric materials similarly formed but with paclitaxel rather than 7-hexanoyl taxol, were used in combination with a support stent, as illustrated in Fig. 3C. The test and control stents were placed in the coronary arteries of pigs, as described in Example 3, and were left in vivo for 28 days. A metal stent not carrying a polymeric material was also placed into an-artery. At the time of insertion of the test and control stents, the coronary artery was characterized using a computer-based coronary angiography analysis system (Umans, V.A., et al., JACC 21(6):1382-1390, (1993)). Boundaries of a selected coronary artery segment were detected automatically from optically magnified and video-digitized regions of interest. The catheter used for insertion of the stents was used as a scaling device to determine the dimensions of the artery at the site of implantation. The original vessel diameter at the time of implantation was determined.
After the 28 day test period, the arteries were then explanted from the pig and pressure fixed for morphometric analysis. […] The percent stenosis was taken as one minus the stented vessel's minimum lumen diameter divided by the diameter of an unstented reference vessel time one-hundred. The percent intimal growth was also determined from the following equation: 1-[(stented vessel's minimum lumenal diameter)/(diameter of stented portion prior to stent placement)]*100. The balloon to artery ratio was also determined as a measure of the degree of distension of the vessel by the balloon.
In another study in support of the invention, stents were prepared as described in Examples 2 and 3. The polymeric materials carried either 7-hexanoyl taxol, paclitaxel or 7-xylosyltaxol. […] The stents were placed in coronary arteries of pigs, according to the procedure described above. After the test period, the percent diameter stenosis and neointimal thickness of the arteries were determined. The percentage of diameter stenosis was determined by two procedures, via quantative coronary angiography (QCA) and via morphometric evaluation of the vessels. The later procedure is described in Example 3. The former procedure, QCA, was performed according to the procedure of Umans, et al. described above, with lumen dimensions determined prior to explanting the vessels for morphometric analysis.
A polymer sleeve, prepared as described in Example 2, was placed about a metal, corrugated stent. The polymer sleeve contained 1500 µg of 7-hexanoyl taxol.
The two-drug loaded stents and two control metal stents with no polymer sleeve were placed into the coronary arteries of healthy Domestic Farm Swine pigs (Pork Power, Inc.) by conventional techniques using a commercially available catheter (Advanced Cardiovascular Systems). The stents were imaged during and after the insertion procedure to ensure proper placement using conventional angiographic imaging techniques. The metal control stents were placed in two different pigs, in one pig the stent was positioned in the left anterior descending artery and in the other pig in the right coronary artery. The comparative control stent containing paclitaxel was placed in one animal in the right coronary artery. The test stents containing 7-hexanoyl taxol were placed in two pigs, one stent in the right coronary artery and the other stent in the other pig in the left circumflex artery.

A short description of data set [2]: Relative water solubility by reverse phase HPLC. As to conditions: for retention time: reverse phase column, silica with diphenylmethyl functionalities, mobile phase acetonitrile/water, longer retention = less water soluble. The procedure:
The water solubility of 7-hexanoyl taxol relative to paclitaxel was determined via HPLC analysis using a reverse phase column and illustrations of the HPLC traces are shown in Fig. 2. The column employed was made of silica with the hydrophilic Si-OH functionalities converted to hydrophobic diphenylmethyl functionalities. The mobile phase was acetonitrile/water. In this column, a hydrophilic or water soluble test material is retained primarily in the aqueous mobile phase, resulting in the water soluble compounds eluting from the column earlier than hydrophobic or water insoluble compounds.

The next data set deals with colon cancer/HT 29. As to the kind of experiment: cells. In kind it is cell-based. The method, then: (§1) In studies performed in support of the invention, the in vitro cytotoxicity of 7-hexanoyl taxol was compared to paclitaxel. As described in Example 1, LC50 values, which signify the concentration of drug at which 50% of the cells are killed, were determined in five cell lines.
(§2) A suspension of each cell line which was diluted according to the particular cell type and the expected target cell density (5,000-40,000 cells per well based on cell growth characteristics) was added by pipet (100 µL) into a 96-well microtiter plate. The cells were allowed a pre-incubation period of 24 hours at 37°C for stabilization. At the end of the pre-incubation period (T0), dilutions of 7-hexanoyl taxol or paclitaxel were added in 100 µL aliquots to the microtiter plate wells. The cells were incubated in the presence of the drug for 48 hours under a 5% CO2 atmosphere at 100% humidity. The cells were assayed using the sulforhodamine B assay. A plate reader was used to read the optical densities.
(§3) The LC50 values were taken as the concentration of compound where 100 x (T-T0)/T0 = -50.

For the next data set, the system named is ovarian cancer/OVCAR-5. Description: cells. In kind it is cell-based. The procedure:
as §1, §2, §3

The test system of a further data set is melanoma/SK-MEL-2. Description: cells. It is filed as cell-based. The method, then:
as §1, §2, §3

For data set [3], the system named is non-small cell lung cancer/NCI H226. As to the kind of experiment: cells. In kind it is cell-based. The procedure:
as §1, §2, §3

In another data set the test system is melanoma/M14. Description: cells. In kind it is cell-based. The method, then: as §1, §2, §3
[4] abbreviates: Table 3 study, stents in coronary arteries of pigs.

Each structure is given as a SMILES string. Like-named read-outs stand apart in the source and are kept apart here. Bounds are passed on as bounds.

Consider 2 molecules from patent EP1143968B9 (priority 1999, dated 2000).

With `CC(=O)O[C@H]1C(=O)[C@@]2(C)[C@H]([C@H](OC(=O)c3ccccc3)[C@]3(O)C[C@H](OC(=O)[C@H](O)[C@@H](NC(=O)c4ccccc4)c4ccccc4)C(C)=C1C3(C)C)[C@]1(OC(C)=O)CO[C@@H]1C[C@@H]2O` [Paclitaxel, reference compound], the “% Intimal Growth” value in data set [1] (right coronary artery) is 29.5%. Also, in data set [1] (right coronary artery), the “% Diameter Stenosis” value was 34%. Also, in data set [2], the retention time was 18.5 min. Moreover, the CC50 is 30 µM in the data set on colon cancer/HT 29 (Homo sapiens, HT-29, 48 h, read-out: LC50); over 100 µM in the data set with ovarian cancer/OVCAR-5 (Homo sapiens, OVCAR-5, 48 h, read-out: LC50); 100 µM in the data set on melanoma/SK-MEL-2 (Homo sapiens, SK-MEL-2, 48 h, read-out: LC50); 70 µM in data set [3] (Homo sapiens, NCI-H226, 48 h, read-out: LC50); 100 µM with melanoma/M14 (48 h, read-out: LC50).
For the molecule `CCCCCC(=O)OC1CC2OCC2(OC(C)=O)C2C(OC(=O)c3ccccc3)C3(O)CC(OC(=O)C(O)C(NC(=O)c4ccccc4)c4ccccc4)C(C)=C(C(OC(C)=O)C(=O)C12C)C3(C)C` (stereo not drawn) [7-hexanoyl taxol], the “intimal thickening compared to paclitaxel” value in data set [1] (setting [4]) is listed as “less”. For the same molecule, in data set [1] (setting [4]), the “percent stenosis compared to paclitaxel” value is “lower”. The “percent diameter stenosis compared to the water-soluble derivative, 7-xylosyltaxol” value in data set [1] (Table 3 study, stents in coronary arteries of pigs, QCA and morphometric evaluation) is “considerably lower”. Also, the “% Intimal Growth” value in data set [1] (left circumflex artery) is on record as 2.3%; in data set [1] (right coronary artery), -7.1%. In addition, the “% Diameter Stenosis” value stood at 16% in data set [1] (left circumflex artery) and 4% in data set [1] (right coronary artery). Moreover, the results for the “reduction in percent stenosis compared to the stent containing paclitaxel” value in data set [1] (one case (of the two stents with 7-hexanoyl taxol)) and in data set [1] (the other case (of the two stents with 7-hexanoyl taxol)) were “two-fold” and about 8 fold, respectively. In addition, in data set [2] (from the hydrophobic shift of HPLC retention time), the “water solubility relative to paclitaxel” value is recorded as “less water soluble than paclitaxel”. Also, the retention time in data set [2] came to 30.9 min. Also, the CC50 in the data set with colon cancer/HT 29 (colon cancer/HT 29, 48 hours with drug, concentration at which 50% of the cells are killed, read-out: LC50 (the source's name)) was 30 µM; in the data set on ovarian cancer/OVCAR-5 (ovarian cancer/OVCAR-5, 48 hours with drug, read-out: LC50 (the source's name)), 50 µM; in the data set with melanoma/SK-MEL-2 (melanoma/SK-MEL-2, 48 hours with drug, read-out: LC50 (the source's name)) it was over 100 µM; in data set [3] (non-small cell lung cancer/NCI H226, 48 hours with drug, read-out: LC50 (the source's name)), over 100 µM; in the data set with melanoma/M14 (melanoma/M14, 48 hours with drug, read-out: LC50 (the source's name)) it was 1.1 µM.
